Measured values as given in the NIST ThermoML archive (doi:10.1021/acs.jced.5b00259).

Experiment: xn = mol fraction of the nth substance listed
Details: 100 kPa, Liquid

CC[NH+]=C(N(C)C)N(C)C.O=S(=O)([N-]S(=O)(=O)C(F)(F)F)C(F)(F)F + CCO
Details	mass density [kg/m3]	viscosity [mPa·s]
293.15 K, x1 = 0.1006	1023.01	2.873
293.15 K, x1 = 0.2004	1148.25	5.27
293.15 K, x1 = 0.3001	1225.91	8.21
293.15 K, x1 = 0.4005	1278.7	13.14
293.15 K, x1 = 0.5018	1316.97	19.52
293.15 K, x1 = 0.6011	1345.48	27.48
293.15 K, x1 = 0.6999	1367.71	36.42
293.15 K, x1 = 0.802	1386.71	47.47
293.15 K, x1 = 0.892	1400.66	59.17
293.15 K, x1 = 1	1414.89	74.61
298.15 K, x1 = 0.1006	1018.29	2.557
298.15 K, x1 = 0.2004	1143.37	4.596
298.15 K, x1 = 0.3001	1221.07	7.081
298.15 K, x1 = 0.4005	1273.82	11.13
298.15 K, x1 = 0.5018	1312.1	16.32
298.15 K, x1 = 0.6011	1340.6	22.71
298.15 K, x1 = 0.6999	1362.79	29.85
298.15 K, x1 = 0.802	1381.82	38.34
298.15 K, x1 = 0.892	1395.79	47.22
298.15 K, x1 = 1	1410.03	58.86
303.15 K, x1 = 0.1006	1013.56	2.289
303.15 K, x1 = 0.2004	1138.51	4.049
303.15 K, x1 = 0.3001	1216.29	6.157
303.15 K, x1 = 0.4005	1268.94	9.534
303.15 K, x1 = 0.5018	1307.24	13.8
303.15 K, x1 = 0.6011	1335.71	19.1
303.15 K, x1 = 0.6999	1357.94	24.85
303.15 K, x1 = 0.802	1376.95	31.52
303.15 K, x1 = 0.892	1390.94	38.37
303.15 K, x1 = 1	1405.19	47.27
308.15 K, x1 = 0.1006	1008.82	2.058
308.15 K, x1 = 0.2004	1133.65	3.587
308.15 K, x1 = 0.3001	1211.51	5.391
308.15 K, x1 = 0.4005	1264.09	8.252
308.15 K, x1 = 0.5018	1302.36	11.95
308.15 K, x1 = 0.6011	1330.83	16.25
308.15 K, x1 = 0.6999	1353.07	20.96
308.15 K, x1 = 0.802	1372.11	26.35
308.15 K, x1 = 0.892	1386.12	31.73
308.15 K, x1 = 1	1400.38	38.71
313.15 K, x1 = 0.1006	1004.07	1.861
313.15 K, x1 = 0.2004	1128.85	3.213
313.15 K, x1 = 0.3001	1206.71	4.757
313.15 K, x1 = 0.4005	1259.25	7.206
313.15 K, x1 = 0.5018	1297.45	10.32
313.15 K, x1 = 0.6011	1325.97	13.99
313.15 K, x1 = 0.6999	1348.22	17.94
313.15 K, x1 = 0.802	1367.28	22.3
313.15 K, x1 = 0.892	1381.31	26.65
313.15 K, x1 = 1	1395.59	32.2
318.15 K, x1 = 0.1006	999.26	1.689
318.15 K, x1 = 0.2004	1124.03	2.884
318.15 K, x1 = 0.3001	1201.81	4.227
318.15 K, x1 = 0.4005	1254.43	6.344
318.15 K, x1 = 0.5018	1292.57	8.977
318.15 K, x1 = 0.6011	1321.11	12.15
318.15 K, x1 = 0.6999	1343.4	15.52
318.15 K, x1 = 0.802	1362.45	19.11
318.15 K, x1 = 0.892	1376.52	22.55
318.15 K, x1 = 1	1390.8	27.09
323.15 K, x1 = 0.1006	994.44	1.515
323.15 K, x1 = 0.2004	1119.21	2.606
323.15 K, x1 = 0.3001	1197.01	3.78
323.15 K, x1 = 0.4005	1249.62	5.627
323.15 K, x1 = 0.5018	1287.74	7.837
323.15 K, x1 = 0.6011	1316.28	10.65
323.15 K, x1 = 0.6999	1338.59	13.58
323.15 K, x1 = 0.802	1357.63	16.54
323.15 K, x1 = 0.892	1371.74	19.32
323.15 K, x1 = 1	1386.03	23.14

CCOS(=O)(=O)[O-].CC[NH+]=C(N(C)C)N(C)C [2-ethyl-1,1,3,3-tetramethylguanidinium ethyl sulfate] + CCCO
Details	mass density [kg/m3]	viscosity [mPa·s]
293.15 K, x1 = 0.0997	898.6	4.426
293.15 K, x1 = 0.2003	964.92	8.127
293.15 K, x1 = 0.3066	1016.48	16.78
293.15 K, x1 = 0.3996	1051.52	27.09
293.15 K, x1 = 0.5016	1082.4	48.51
293.15 K, x1 = 0.5989	1106.32	82.64
293.15 K, x1 = 0.6984	1126.59	134.4
293.15 K, x1 = 0.7999	1144.02	243.1
293.15 K, x1 = 0.8981	1158.38	405.5
293.15 K, x1 = 1	1170.76	673.4
298.15 K, x1 = 0.0997	894.7	3.9
298.15 K, x1 = 0.2003	961.16	7.044
298.15 K, x1 = 0.3066	1012.78	13.97
298.15 K, x1 = 0.3996	1047.86	22.36
298.15 K, x1 = 0.5016	1078.78	38.84
298.15 K, x1 = 0.5989	1102.73	63.88
298.15 K, x1 = 0.6984	1123.01	100.3
298.15 K, x1 = 0.7999	1140.47	174.3
298.15 K, x1 = 0.8981	1154.86	278.2
298.15 K, x1 = 1	1167.24	441.5
303.15 K, x1 = 0.0997	890.9	3.455
303.15 K, x1 = 0.2003	957.41	6.152
303.15 K, x1 = 0.3066	1009.1	12.3
303.15 K, x1 = 0.3996	1044.26	18.74
303.15 K, x1 = 0.5016	1075.17	31.58
303.15 K, x1 = 0.5989	1099.15	50.4
303.15 K, x1 = 0.6984	1119.44	76.66
303.15 K, x1 = 0.7999	1136.93	128.5
303.15 K, x1 = 0.8981	1151.36	197.5
303.15 K, x1 = 1	1163.76	302.5
308.15 K, x1 = 0.0997	887.03	3.077
308.15 K, x1 = 0.2003	953.65	5.412
308.15 K, x1 = 0.3066	1005.42	10.72
308.15 K, x1 = 0.3996	1040.62	15.88
308.15 K, x1 = 0.5016	1071.58	26.07
308.15 K, x1 = 0.5989	1095.58	40.53
308.15 K, x1 = 0.6984	1115.89	59.78
308.15 K, x1 = 0.7999	1133.41	97.5
308.15 K, x1 = 0.8981	1147.85	145.3
308.15 K, x1 = 1	1160.28	214.6
313.15 K, x1 = 0.0997	883.16	2.751
313.15 K, x1 = 0.2003	949.88	4.79
313.15 K, x1 = 0.3066	1001.73	9.145
313.15 K, x1 = 0.3996	1036.98	13.59
313.15 K, x1 = 0.5016	1068	21.82
313.15 K, x1 = 0.5989	1092.03	33.1
313.15 K, x1 = 0.6984	1112.37	47.59
313.15 K, x1 = 0.7999	1129.9	75.47
313.15 K, x1 = 0.8981	1144.35	110
313.15 K, x1 = 1	1156.8	157.2
318.15 K, x1 = 0.0997	879.26	2.471
318.15 K, x1 = 0.2003	946.11	4.266
318.15 K, x1 = 0.3066	998.04	7.69
318.15 K, x1 = 0.3996	1033.37	11.73
318.15 K, x1 = 0.5016	1064.43	18.48
318.15 K, x1 = 0.5989	1088.5	27.42
318.15 K, x1 = 0.6984	1108.86	38.53
318.15 K, x1 = 0.7999	1126.4	59.7
318.15 K, x1 = 0.8981	1140.87	84.19
318.15 K, x1 = 1	1153.33	118.3
323.15 K, x1 = 0.0997	875.35	2.228
323.15 K, x1 = 0.2003	942.33	3.819
323.15 K, x1 = 0.3066	994.35	6.777
323.15 K, x1 = 0.3996	1029.73	10.2
323.15 K, x1 = 0.5016	1060.87	15.79
323.15 K, x1 = 0.5989	1084.97	23.01
323.15 K, x1 = 0.6984	1105.36	31.66
323.15 K, x1 = 0.7999	1122.93	47.99
323.15 K, x1 = 0.8981	1137.4	66.48
323.15 K, x1 = 1	1149.87	91.22
